In patent US20110166112A1, “METHOD FOR STIMULATING PLATELET PRODUCTION” (Eisai, Inc., priority 2009, published 2011):
“And” between values parts separate entries of the source, which are not always exact repeats. Equal values may be shown once.

System: subjects with chronic idiopathic thrombocytopenic purpura (ITP)
Test: Phase 2 double-blind placebo-controlled dose-ranging 28-day study of E5501 tablets: platelet count response (responder rate)
Format: in vivo, human
Conditions: for Responder, Yes / Responder, No: Day 28; for Subjects Who Maintained Responder Status, No / Subjects Who Maintained Responder Status, Yes: completer population; for Subjects Who Maintained Responder Status, Yes: Day 7 response maintained to Day 28; for subjects with increased platelet counts that met the criteria for positive response / response: day 28; for subjects with increased platelet counts that met the criteria for positive response: FAS
Method: This was a phase 2, multi-center, double-blind, randomized, placebo-controlled, dose-ranging, parallel group study of E5501 tablets, used in the treatment of subjects with chronic idiopathic thrombocytopenic purpura (ITP) refractory to or relapsed after at least one prior ITP therapy. Subjects who met all entry criteria were randomly assigned in a 3:3:3:3:1 ratio to one of the following five treatment groups dosed daily for 28 days: 1) E5501 2.5 mg; 2) E5501 5 mg; 3) E5501 10 mg; 4) E5501 20 mg; or 5) placebo (PBO). Each E5501 dosing group consisted of 15 subjects while the PBO group consisted of 5 subjects. All study subjects were evaluated weekly (days 7, 14, 21 and 28) for safety and efficacy while receiving study treatment, with a final assessment for safety and effectiveness performed 4 weeks after the last study dose (day 56) unless the subject entered the follow-on study. Platelet counts were also measured on day 3 and day 5.
The primary objective of this study was to assess platelet count response to E5501 on day 28. The response rate was defined as the proportion of subjects who were not on steroids with a screening visit B platelet count <30,000/mm^3 and who achieved a platelet count ≧50,000/mm^3, together with the proportion of subjects receiving steroids with a screening visit B platelet count ≧30,000/mm^3 but <50,000/mm^3 who achieved a platelet count ≧20,000/mm^3 above their screening visit B platelet count. Secondary objectives of the study included the evaluation of other markers of effectiveness, including changes in peripheral blood platelet count, the proportion of subjects who achieved a platelet count ≧50,000/mm^3 and ≧100,000/mm^3, and the proportion of subjects who achieved a doubling of their platelet count at screening visit B and the assessment of the safety and tolerability of E5501.
Primary efficacy endpoint. The primary endpoint in this study was E5501 responder rate on day 28. A responder is defined as a subject with screening visit B platelet count <30,000/mm^3 who achieves a platelet count ≧50,000/mm^3 or a subject receiving steroids with a screening visit B platelet count ≧30,000/mm^3 but <50,000/mm^3 who achieves a platelet count ≧20,000/mm^3 above their screening visit B platelet count.
The secondary endpoints included changes from screening visit B in peripheral blood platelet counts over time; the proportion of subjects who achieved a platelet count of ≧50,000/mm^3 or ≧100,000/mm^3 on day 28 and the proportion of subjects whose platelet count doubled compared to their platelet count at Screening Visit B.
The populations of interest were defined as follows: • The randomized population included all subjects who were randomized into the study. • The safety population included all randomized subjects who receive at least one dose of study drug and have at least one safety assessment. • The pharmacokinetic (PK) population included all subjects who provided blood sample for analysis of E5501. A subject was included in this population if the subject had at least one blood draw for PK assessment. • The full analysis set (FAS) included all subjects who provided adequate data to derive at least one efficacy assessment. […] The day 28 visit window was defined to be from day 25, to last dose day+1, inclusively; • Other major protocol violations that impacted the platelet endpoint evaluation. Results from Planned Analyses
Primary Efficacy Endpoint. The analysis of efficacy was performed both on the FAS population and the PP population at day 28 visit with LOCF and observed case (OC) approaches. The primary analysis population was the FAS. Fisher's exact test was used to examine the difference of response rates among each treatment pair. All p-values are nominal without adjustment for multiplicity.
Secondary Efficacy Endpoint. Analyses for secondary efficacy endpoints were performed by treatment group and by analysis visit using both LOCF and OC methods. […]

[1] = No Previous History of Splenectomy, 20 mg
[2] = No Previous History of Splenectomy, Total E5501
[3] = Number of Lines of Prior Therapy <3, 2.5 mg
[4] = Number of Lines of Prior Therapy <3, 5 mg
[5] = Number of Lines of Prior Therapy <3, 10 mg
[6] = Number of Lines of Prior Therapy <3, 20 mg
[7] = Number of Lines of Prior Therapy <3, Total E5501
[8] = Number of Lines of Prior Therapy ≧3, 2.5 mg
[9] = Number of Lines of Prior Therapy ≧3, 5 mg
[10] = Number of Lines of Prior Therapy ≧3, 10 mg
[11] = Number of Lines of Prior Therapy ≧3, 20 mg
[12] = Number of Lines of Prior Therapy ≧3, Total E5501
[13] = Per Protocol Population, 2.5 mg
[14] = Per Protocol Population, Total E5501
[15] = Previous History of Splenectomy, 2.5 mg
[16] = Previous History of Splenectomy, 5 mg
[17] = Previous History of Splenectomy, 10 mg
[18] = Previous History of Splenectomy, 20 mg
[19] = Previous History of Splenectomy, Total E5501

O=C(Nc1nc(-c2cc(Cl)cs2)c(N2CCN(C3CCCCC3)CC2)s1)c1cnc(N2CCC(C(=O)O)CC2)c(Cl)c1 [E5501, 1-(3-chloro-5-{[4-(4-chlorothiophen-2-yl)-5-(4-cyclohexylpiperazin-1-yl)thiazol-2-yl]carbamoyl}pyridine-2-yl)piperidine-4-carboxylic acid]
Responder, Yes (No Previous History of Splenectomy, 10 mg): 6 (54.5) n (%) | Responder, No [1]: 1 (11.1) n (%) | Responder, Yes [1]: 8 (88.9) n (%) | Responder, No [2]: 20 (48.8) n (%) | Responder, Yes [2]: 21 (51.2) n (%) | Responder, No [3]: 3 (100.0) n (%) | Responder, Yes [3]: 0 n (%) | Responder, No [4]: 4 (44.4) n (%) | Responder, Yes [4]: 5 (55.6) n (%) | Responder, No [5]: 1 (25.0) n (%) | Responder, Yes [5]: 3 (75.0) n (%) | Responder, No [6]: 1 (14.3) n (%) | Responder, Yes [6]: 6 (85.7) n (%) | Responder, No [7]: 9 (39.1) n (%) | Responder, Yes [7]: 14 (60.9) n (%) | Responder, No [8]: 10 (83.3) n (%) | Responder, Yes [8]: 2 (16.7) n (%) | Responder, No [9]: 3 (50.0) n (%) | Responder, Yes [9]: 3 (50.0) n (%) | Responder, No [10]: 6 (60.0) n (%) | Responder, Yes [10]: 4 (40.0) n (%) | Responder, No [11]: 2 (25.0) n (%) | Responder, Yes [11]: 6 (75.0) n (%) | Responder, No [12]: 21 (58.3) n (%) | Responder, Yes [12]: 15 (41.7) n (%) | Responder, No (Other Site Pooled, 2.5 mg): 8 (88.9) n (%) | Responder, Yes (Other Site Pooled, 2.5 mg): 1 (11.1) n (%) | Responder, No (Other Site Pooled, 5 mg): 6 (60.0)2 n (%) | Responder, Yes (Other Site Pooled, 5 mg): 4 (40.0) n (%) | Responder, No (Other Site Pooled, 10 mg): 4 (57.1) n (%) | Responder, Yes (Other Site Pooled, 10 mg): 3 (42.9) n (%) | Responder, No (Other Site Pooled, 20 mg): 1 (16.7) n (%) | Responder, Yes (Other Site Pooled, 20 mg): 5 (83.3) n (%) | Responder, No (Other Site Pooled, Total E5501): 19 (59.4) n (%) | Responder, Yes (Other Site Pooled, Total E5501): 13 (40.6) n (%) | Responder, No [13]: 11 (84.6) n (%) | Responder, Yes [13]: 2 (15.4) n (%) | Responder, No (Per Protocol Population, 5 mg): 7 (53.8) n (%) | Responder, Yes (Per Protocol Population, 5 mg): 6 (46.2) n (%) | Responder, No (Per Protocol Population, 10 mg): 5 (41.7) n (%) | Responder, Yes (Per Protocol Population, 10 mg): 7 (58.3) n (%) | Responder, No (Per Protocol Population, 20 mg): 3 (25.0) n (%) | Responder, Yes (Per Protocol Population, 20 mg): 9 (75.0) n (%) | Responder, No [14]: 26 (52.0) n (%) | Responder, Yes [14]: 24 (48.0) n (%) | Responder, No [15]: 4 (80.0) n (%) | Responder, Yes [15]: 1 (20.0) n (%) | Responder, No [16]: 2 (50.0) n (%) | Responder, Yes [16]: 2 (50.0) n (%) | Responder, No [17]: 2 (66.7) n (%) | Responder, Yes [17]: 1 (33.3) n (%) | Responder, No [18]: 2 (33.3) n (%) | Responder, Yes [18]: 4 (66.7) n (%) | Responder, No [19]: 10 (55.6) n (%) | Responder, Yes [19]: 8 (44.4) n (%) | Responder, No (Site 132, 2.5 mg): 5 (83.3) n (%) | Responder, Yes (Site 132, 2.5 mg): 1 (16.7) n (%) | Responder, No (Site 132, 5 mg): 1 (20.0) n (%) | Responder, Yes (Site 132, 5 mg): 4 (80.0) n (%) | Responder, No (Site 132, 10 mg): 3 (42.9) n (%) | Responder, Yes (Site 132, 10 mg): 4 (57.1) n (%) | Responder, No (Site 132, 20 mg): 2 (22.2) n (%) | Responder, Yes (Site 132, 20 mg): 7 (77.8) n (%) | Responder, No (Site 132, Total E5501): 11 (40.7) n (%) | Responder, Yes (Site 132, Total E5501): 16 (59.3) n (%) | responder rate (by Day 7, 2.5 mg): 6.7% | responder rate (by Day 7, 5 mg): 66.7% | responder rate (by Day 7, 10 mg): 64% | responder rate (by Day 7, 20 mg): 93.3% and 93% | subjects who achieved an increase in platelet count by ≧50,000/mm^3 (by Day 7, 20 mg): Approximately 90% | Subjects Who Maintained Responder Status, No (2.5 mg): 13 (100.0) n (%) | Subjects Who Maintained Responder Status, No (5 mg): 10 (71.4) n (%) | Subjects Who Maintained Responder Status, No (10 mg): 7 (58.3) n (%) | Subjects Who Maintained Responder Status, No (20 mg): 3 (23.1) n (%) | Subjects Who Maintained Responder Status, Yes (2.5 mg): 0 n (%) | Subjects Who Maintained Responder Status, Yes (5 mg): 4 (28.6) n (%) | Subjects Who Maintained Responder Status, Yes (10 mg): 5 (41.7) n (%) | Subjects Who Maintained Responder Status, Yes (20 mg): 10 (76.9) n (%) | Subjects Who Maintained Responder Status, Yes (Total E5501): 19 (36.5) n (%) | Subjects Who Maintained Responder Status, No (Total E5501): 33 (63.5) n (%) | subjects with increased platelet counts that met the criteria for positive response (2.5 mg): 13.3% | subjects with increased platelet counts that met the criteria for positive response (5 mg): 53.3% | subjects with increased platelet counts that met the criteria for positive response (10 mg): 50% | subjects with increased platelet counts that met the criteria for positive response (20 mg): 80% | response (other sites pooled, 5 mg): 40% | response (site 132, 5 mg): 80% | subjects who responded by day 7 (dose of ≧5 mg): 57.6% | overall response rate (highest dose of E5501 tested): 80-93% | reduction of response rates from day 7 to 28 days (lower E5501 dose groups): about 30% | subjects treated with E5501 who responded by day 3 (of 13 subjects): One | subjects treated with E5501 who responded by day 5 (of 19 subjects): 6 subjects
